{"source": "patent US9730445B2", "about": "“Herbicidal compositions comprising 4-amino-3-chloro-5-fluoro-6-(4-chloro-2-fluoro-3-methoxyphenyl) pyridine-2-carboxylic acid or a derivative thereof and fungicides” (DOW AGROSCIENCES LLC, priority 2013, dated 2017)", "key": {"DIGSA": {"test_system": "DIGSA", "experiment": "Postemergence foliar-applied weed control, direct-seeded rice (greenhouse)", "assay_type": "in vivo, Digitaria sanguinalis (L.) Scop. (large crabgrass)"}, "FIMMI": {"test_system": "FIMMI", "experiment": "In-water applied weed control, transplanted paddy rice (greenhouse)", "assay_type": "in vivo, Fimbristylis miliacea (L.) Vahl (globe fringerush)", "description": "Weed seeds or nutlets of the desired test plant species were planted in puddled soil (mud) prepared by mixing a shredded, non-sterilized mineral soil (50.5 percent silt, 25.5 percent clay, and 24 percent sand, with a pH of about 7.6 and an organic matter content of about 2.9 percent) and water at a 1:1 volumetric ratio. The prepared mud was dispensed in 365 mL aliquots into 16-ounce (oz.) non-perforated plastic pots with a surface area of 86.59 square centimeters (cm^2) leaving a headspace of 3 centimeters (cm) in each pot. Rice seeds were planted in Sun Gro MetroMix® 306 planting mixture, which typically has a pH of 6.0 to 6.8 and an organic matter content of about 30 percent, in plastic plug trays. Seedlings at the second or third leaf stage of growth were transplanted into 860 mL of mud contained in 32-oz. non-perforated plastic pots with a surface area of 86.59 cm^2 4 days prior to herbicide application. The paddy was created by filling the headspace of the pots with 2.5 to 3 cm of water. When required to ensure good germination and healthy plants, a fungicide treatment and/or other chemical or physical treatment was applied. The plants were grown for 4-22 days in a greenhouse with an approximate 14 hour (h) photoperiod which was maintained at about 29° C. during the day and about 26° C. during the night. Nutrients were added as Osmocote® (17:6:10, N:P:K+minor nutrients) at 2 g per cup. Water was added on a regular basis to maintain the paddy flood, and supplemental lighting was provided with overhead metal halide 1000-Watt lamps as necessary. The plants were employed for testing when they reached the first through fourth true leaf stage. […]\nTreatment requirements for each compound or fungicidal component were calculated based upon the rates being tested, the concentration of active ingredient or acid equivalent in the formulation, an application volume of 2 mL per component per pot, and an application area of 86.59 cm^2 per pot.\nFor formulated compounds, a measured amount was placed in an individual 100 or 200 mL glass vial and was dissolved in a volume of 1.25% (v/v) Agri-Dex® crop oil concentrate to obtain application solutions. […]\nThe treated plants and control plants were placed in a greenhouse as described above and water was added as needed to maintain a paddy flood. After approximately 3 weeks the condition of the test plants as compared with that of the untreated plants was determined visually and scored on a scale of 0 to 100 percent where 0 corresponds to no injury or growth inhibition and 100 corresponds to complete kill. […]"}}, "note": "“And” between values parts separate entries of the source, which are not always exact repeats. Equal entries are not always repeated."}
{"smiles": "COc1c(Cl)ccc(-c2nc(C(=O)OCc3ccccc3)c(Cl)c(N)c2F)c1F", "note": "[Compound A Benzyl Ester]", "values": [{"measurement": "Visual Weed Control (%)—20 DAA DIGSA Obs", "setting": "DIGSA; 20 DAA, r21-23 ester 8/16/32 g ae/ha alone, r24-25 isotianil 100/200 g ai/ha alone, r26-31 ester 8/16/32 at each of 100, 200", "value": "20% and 30% and 40%"}, {"measurement": "Visual Weed Control (%)—21 DAA DIGSA Obs", "setting": "DIGSA; 21 DAA, r38-39 ester 8/16 g ae/ha alone, r40 isotianil 380 g ai/ha alone, r41-42 ester 8/16 + 380", "value": "15% and 25%"}, {"measurement": "Visual Weed Control (%) - 22 DAA DIGSA Obs", "setting": "DIGSA; 22 DAA, r22-24 ester 8/16/32 g ae/ha alone, r25-27 difenoconazole 50/100/200 g ai/ha alone, r28-36 ester 8/16/32 at each of 50, 100, 200", "value": "15% and 23% and 28%"}, {"measurement": "Visual Weed Control (%) - 22 DAA FIMMI Obs", "setting": "FIMMI; Compound A Benzyl Ester 4.38 g ae/ha", "value": 50, "unit": "%"}, {"measurement": "Visual Weed Control (%) - 22 DAA FIMMI Obs", "setting": "FIMMI; Compound A Benzyl Ester 8.75 g ae/ha", "value": 80, "unit": "%"}, {"measurement": "Visual Weed Control (%) - 22 DAA FIMMI Obs", "setting": "FIMMI; Compound A Benzyl Ester 17.5 g ae/ha", "value": 100, "unit": "%"}]}
